From US6914045B2, “Glycopeptide antibiotics” (Wyeth Holdings Corporation, priority 2001, dated 2005)
In brackets after ≈: the same amount, converted by molar mass.

Columns and labels:
Test in all cases: in vitro antibacterial evaluation, MIC by broth dilution
Type in all cases: cell-based
Staphylococcus sp. = details: broth dilution, 18 hours at 35° C.; for MIC Staphylococcus aureus (GC 1131): strain GC 1131
Procedure, shortened: (§1)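 MIC, the lowest antibiotic concentration preventing growth, was read across 64-0.06 μg/mL with 5×10^5 CFU/mL inoculum. Method followed NCCLS M7-A2 broth dilution using Mueller-Hinton II; Gram-positive strains covered recent methicillin-, penicillin- and/or vancomycin-resistant clinical isolates.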

Enterococcus sp. = details: broth dilution, 18 hours at 35° C.
Procedure, shortened: as §1

Escherichia coli = test system: Escherichia coli
Procedure, shortened: as §1

Streptococcus sp. = details: broth dilution, 18 hours at 35° C.
Procedure, shortened: as §1

MIC Staphylococcus aureus (GC 1131) (Staphylococcus sp.; inoculum 5×10^5 CFU/mL): 8 µg/mL (≈ 5.55 µM) | MIC Staphylococcus aureus (ATCC 29213) (Staphylococcus sp.; strain ATCC 29213): 8 µg/mL (≈ 5.55 µM) | MIC Staphylococcus aureus (GC 1131) (Staphylococcus sp.): 8 µg/mL (≈ 5.55 µM) | MIC Staphylococcus aureus (GC 3051) (Staphylococcus sp.; strain GC 3051): 8 µg/mL (≈ 5.55 µM) | MIC Staphylococcus aureus (GC 3053) (Staphylococcus sp.; strain GC 3053): 16 µg/mL (≈ 11.1 µM) | MIC Staphylococcus aureus (GC 4541) (Staphylococcus sp.; strain GC 4541): 4 µg/mL (≈ 2.77 µM) | MIC Staphylococcus aureus (GC 4542) (Staphylococcus sp.; strain GC 4542): 8 µg/mL (≈ 5.55 µM) | MIC Staphylococcus aureus-SMITH (GC 4543) (Staphylococcus sp.; strain GC 4543): 8 µg/mL (≈ 5.55 µM) | MIC Staphylococcus aureus (GC 4544) (Staphylococcus sp.; strain GC 4544): 8 µg/mL (≈ 5.55 µM) | MIC Staphylococcus aureus (GC 4545) (Staphylococcus sp.; strain GC 4545): 4 µg/mL (≈ 2.77 µM) | MIC Coagulase Negative Staphylococcus (GC 4547) (Staphylococcus sp.; strain GC 4547): 4 µg/mL (≈ 2.77 µM) | MIC Coagulase Negative Staphylococcus (GC 4548) (Staphylococcus sp.; strain GC 4548): 4 µg/mL (≈ 2.77 µM) | MIC Coagulase Negative Staphylococcus (GC 4549) (Staphylococcus sp.; strain GC 4549): 2 µg/mL (≈ 1.39 µM) | MIC Coagulase Negative Staphylococcus (GC 4551) (Staphylococcus sp.; strain GC 4551): 8 µg/mL (≈ 5.55 µM) | MIC Coagulase Negative Staphylococcus (GC 6257) (Staphylococcus sp.; strain GC 6257): 2 µg/mL (≈ 1.39 µM) | MIC Staphylococcus aureus-SMITH (GC 4543) (Staphylococcus sp.; strain SMITH GC 4543): 8 µg/mL (≈ 5.55 µM) | MIC Enterococcus avium (GC 4558) (Enterococcus sp.; Enterococcus avium (GC 4558)): 32 µg/mL (≈ 22.2 µM) | MIC Enterococcus faecalis (ATCC 29212) (Enterococcus sp.; Enterococcus faecalis (ATCC 29212)): 32 µg/mL (≈ 22.2 µM) | MIC Enterococcus faecalis (GC 2242) (Enterococcus sp.; Enterococcus faecalis (GC 2242)): 16 µg/mL (≈ 11.1 µM) | MIC Enterococcus faecalis (GC 2691) (Enterococcus sp.; Enterococcus faecalis (GC 2691)): 32 µg/mL (≈ 22.2 µM) | MIC Enterococcus faecalis (GC 3059) (Enterococcus sp.; Enterococcus faecalis (GC 3059)): 32 µg/mL (≈ 22.2 µM) | MIC Enterococcus faecalis (GC 4552) (Enterococcus sp.; Enterococcus faecalis (GC 4552)): 32 µg/mL (≈ 22.2 µM) | MIC Enterococcus faecalis (GC 4553) (Enterococcus sp.; Enterococcus faecalis (GC 4553)): 32 µg/mL (≈ 22.2 µM) | MIC Enterococcus faecalis (GC 4554) (Enterococcus sp.; Enterococcus faecalis (GC 4554)): 32 µg/mL (≈ 22.2 µM) | MIC Enterococcus faecalis (GC 6189) (Enterococcus sp.; Enterococcus faecalis (GC 6189)): 64 µg/mL (≈ 44.4 µM) | MIC Enterococcus faecium (GC 2243) (Enterococcus sp.; Enterococcus faecium (GC 2243)): 32 µg/mL (≈ 22.2 µM) | MIC Enterococcus faecium (GC 4556) (Enterococcus sp.; Enterococcus faecium (GC 4556)): 32 µg/mL (≈ 22.2 µM) | MIC Enterococcus faecium (GC 4557) (Enterococcus sp.; Enterococcus faecium (GC 4557)): 8 µg/mL (≈ 5.55 µM) | MIC Enterococcus faecalis (ATCC 29212) (Enterococcus sp.; strain ATCC 29212): 32 µg/mL (≈ 22.2 µM) | MIC Enterococcus faecalis (GC 2242) (Enterococcus sp.; strain GC 2242): 16 µg/mL (≈ 11.1 µM) | MIC Enterococcus faecium (GC 2243) (Enterococcus sp.; strain GC 2243): 32 µg/mL (≈ 22.2 µM) | MIC Enterococcus faecalis (GC 2691) (Enterococcus sp.; strain GC 2691): 32 µg/mL (≈ 22.2 µM) | MIC Enterococcus faecalis (GC 3059) (Enterococcus sp.; strain GC 3059): 32 µg/mL (≈ 22.2 µM) | MIC Enterococcus faecalis (GC 4552) (Enterococcus sp.; strain GC 4552): 32 µg/mL (≈ 22.2 µM) | MIC Enterococcus faecalis (GC 4553) (Enterococcus sp.; strain GC 4553): 32 µg/mL (≈ 22.2 µM) | MIC Enterococcus faecalis (GC 4554) (Enterococcus sp.; strain GC 4554): 32 µg/mL (≈ 22.2 µM) | MIC Enterococcus faecium (GC 4556) (Enterococcus sp.; strain GC 4556): 32 µg/mL (≈ 22.2 µM) | MIC Enterococcus faecium (GC 4557) (Enterococcus sp.; strain GC 4557): 8 µg/mL (≈ 5.55 µM) | MIC Enterococcus avium (GC 4558) (Enterococcus sp.; strain GC 4558): 32 µg/mL (≈ 22.2 µM) | MIC Enterococcus faecalis (GC 6189) (Enterococcus sp.; strain GC 6189): 64 µg/mL (≈ 44.4 µM) | MIC Escherichia coli (ATCC 25922) (Escherichia coli; strain ATCC 25922, 18 hours at 35° C.): >64 µg/mL | MIC Escherichia coli (GC 4559) (Escherichia coli; strain GC 4559, 18 hours at 35° C.): >64 µg/mL | MIC Escherichia coli (GC 4560) (Escherichia coli; strain GC 4560, 18 hours at 35° C.): 2 µg/mL (≈ 1.39 µM) | MIC Streptococcus agalactiae (GC 4564) (Streptococcus sp.; Streptococcus agalactiae (GC 4564)): 4 µg/mL (≈ 2.77 µM) | MIC Streptococcus pneumoniae (ATCC 6301) (Streptococcus sp.; Streptococcus pneumoniae (ATCC 6301)): 1 µg/mL (≈ 0.693 µM) | MIC Streptococcus pneumoniae (GC 1894) (Streptococcus sp.; Streptococcus pneumoniae (GC 1894)): 0.5 µg/mL (≈ 0.347 µM) | MIC Streptococcus pneumoniae (GC 4565) (Streptococcus sp.; Streptococcus pneumoniae (GC 4565)): 1 µg/mL (≈ 0.693 µM) | MIC Streptococcus pyogenes (GC 4563) (Streptococcus sp.; Streptococcus pyogenes (GC 4563)): 2 µg/mL (≈ 1.39 µM) | MIC Streptococcus pneumoniae (ATCC 6301) (Streptococcus sp.; strain ATCC 6301): 1 µg/mL (≈ 0.693 µM) | MIC Streptococcus pneumoniae (GC 1894) (Streptococcus sp.; strain GC 1894): 0.5 µg/mL (≈ 0.347 µM) | MIC Streptococcus pyogenes (GC 4563) (Streptococcus sp.; strain GC 4563): 2 µg/mL (≈ 1.39 µM) | MIC Streptococcus agalactiae (GC 4564) (Streptococcus sp.; strain GC 4564): 4 µg/mL (≈ 2.77 µM) | MIC Streptococcus pneumoniae (GC 4565) (Streptococcus sp.; strain GC 4565): 1 µg/mL (≈ 0.693 µM)
Compound: Cc1cc(C2OCC3OC(OC4C(CO)OC(Oc5ccc(CC6NC(=O)C(C(C)c7ccccc7)NC(=O)CNC(=O)C(CO)NC(=O)C(C(O)C7CNC(=N)N7C7OC(CO)C(O)C(O)C7O)NC(=O)C(C(O)C7CNC(=N)N7)NC6=O)cc5)C(O)C4O)C(O)C(O)C3O2)ccc1[N+](=O)[O-] (stereo not drawn) [Example 151]
MIC Staphylococcus haemolyticus (GC 4546) (Staphylococcus sp.; strain GC 4546): 2 µg/mL (≈ 1.39 µM)
